Results: publication PMC7351026, “Serum Half-Lives for Short- and Long-Chain Perfluoroalkyl Acids after Ceasing Exposure from Drinking Water Contaminated by Firefighting Foam” (Environmental Health Perspectives, 2020)
“And” between values parts separate entries of the source, which are not always exact repeats. Identical values can stand only once. Like-named read-outs stand apart in the source and are kept apart here.

Columns and labels:
[1] = PFAS levels in serum samples of airport employees (LC/MS/MS); conditions: for Serum level in the first samples, median (range) / Relative composition of PFAS in serum, molar concentration basis / Relative composition of PFAS in serum, weight basis / Serum concentration, molar basis / Serum concentration, weight basis: all 26 airport employees; for Relative composition of PFAS in serum, molar concentration basis / Relative composition of PFAS in serum, weight basis: first serum samples; for Serum concentration, molar basis / Serum concentration, weight basis: median of first serum samples; for Serum level, median (range): second to fifth samplings, 17 airport employees
Outline: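 Serum from airport employees, drawn after contaminated drinking-water exposure ended, up to five monthly rounds, all reanalyzed in one batch. 25 μL serum precipitated with acetonitrile/methanol plus labeled internal standards; LC/MS/MS on BEH C18 with ammonium acetate/methanol gradient, calibrants prepared in FBS.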

[2] = Background serum PFAS levels in reference population from Karlshamn; assay type: in vivo, human; conditions: reference group from Karlshamn without PFAS contamination in drinking water, N=58, sampled 2016
Excerpt: For comparison with Swedish general background PFAS serum levels, we referred to the PFAS levels observed in a reference population from Karlshamn, a municipality in southern Sweden without PFAS contamination in the municipal drinking water. In 2016, 226 individuals were sampled. Fifty-nine individuals were randomly selected for analyzing other short-chain PFAS than the legacy ones, using the same modified method as for the airport employees. Fifty-eight individuals within the same age range as the airport employees (i.e., >22 years of age ) were included in the comparison. For a detailed description of this population see Li et al. ([2018]).

[3] = design: method as in Zhang et al. 2015; conditions: ref Zhang et al. 2015, cited from earlier work
[4] = 1st sampling (September 2018), count 17
[5] = 2nd sampling (October 2018), count 17
[6] = 3rd sampling (November, 2018), count 17
[7] = 4th sampling (December 2018), count 16
[8] = 5th sampling (January 2019), count 16
[9] = employees participated in first blood sampling and repeated blood and urine sampling, N=17
[10] = employees participated in first blood sampling only, N=9, 11-14 d after end of exposure

O=S(=O)(O)C(F)(F)C(F)(F)C(F)(F)C(F)(F)C(F)(F)C(F)(F)F [PFHxS, perfluorohexane sulfonic acid]
Serum PFAS level, 25 percentile [1, 4]: 63
Serum PFAS level, 75 percentile [1, 4]: 155
Serum PFAS level, Max [1, 4]: 402
Serum PFAS level, Median [1, 4]: 133
Serum PFAS level, Min [1, 4]: 21
Serum PFAS level, 25 percentile [1, 5]: 57
Serum PFAS level, 75 percentile [1, 5]: 144
Serum PFAS level, Max [1, 5]: 363
Serum PFAS level, Median [1, 5]: 122
Serum PFAS level, Min [1, 5]: 18
Serum PFAS level, 25 percentile [1, 6]: 57
Serum PFAS level, 75 percentile [1, 6]: 150
Serum PFAS level, Max [1, 6]: 392
Serum PFAS level, Median [1, 6]: 119
Serum PFAS level, Min [1, 6]: 20
Serum PFAS level, 25 percentile [1, 7]: 50
Serum PFAS level, 75 percentile [1, 7]: 146
Serum PFAS level, Max [1, 7]: 381
Serum PFAS level, Median [1, 7]: 109
Serum PFAS level, Min [1, 7]: 17
Serum PFAS level, 25 percentile [1, 8]: 64
Serum PFAS level, 75 percentile [1, 8]: 153
Serum PFAS level, Max [1, 8]: 399
Serum PFAS level, Median [1, 8]: 117
Serum PFAS level, Min [1, 8]: 42
Serum level in the first samples, median (range) [1]: 76 (17–402) ng/mL
PFAS in first serum sample, median (range) [1, 9]: 133 (21–402) ng/mL
PFAS in first serum sample, median (range) [1, 10]: 60 (17–85) ng/mL
Initial serum PFAS level, max ([1]; females (N=7)): 183 ng/mL
Initial serum PFAS level, median ([1]; females (N=7)): 74 ng/mL
Initial serum PFAS level, min ([1]; females (N=7)): 21 ng/mL
Relative composition of PFAS in serum, molar concentration basis [1]: 70.4% and 70%
Relative composition of PFAS in serum, weight basis [1]: 68.9%
Initial serum PFAS level, Max ([1]; males (N=19)): 402 ng/mL
Initial serum PFAS level, Min ([1]; males (N=19)): 17 ng/mL
Initial serum PFAS level, median ([1]; males (N=19)): 78 ng/mL
Serum concentration, molar basis [1]: 0.19
Serum concentration, weight basis [1]: 76
Serum level, median (range) [1]: 118 (17–399) ng/mL
PFAS serum level, median (range) [2]: 0.59 ( <LOD –1.2) ng/mL

O=C(O)C(F)(F)C(F)(F)C(F)(F)C(F)(F)C(F)(F)C(F)(F)C(F)(F)F [PFOA, perfluorooctanoic acid]
Serum PFAS level, 25 percentile [1, 4]: 8.7
Serum PFAS level, 75 percentile [1, 4]: 16
Serum PFAS level, Max [1, 4]: 31
Serum PFAS level, Median [1, 4]: 13
Serum PFAS level, Min [1, 4]: 5.0
Serum PFAS level, 25 percentile [1, 5]: 8.3
Serum PFAS level, 75 percentile [1, 5]: 14
Serum PFAS level, Max [1, 5]: 28
Serum PFAS level, Median [1, 5]: 11
Serum PFAS level, Min [1, 5]: 4.1
Serum PFAS level, 25 percentile [1, 6]: 7.9
Serum PFAS level, 75 percentile [1, 6]: 14
Serum PFAS level, Max [1, 6]: 28
Serum PFAS level, Median [1, 6]: 11
Serum PFAS level, Min [1, 6]: 4.6
Serum PFAS level, 25 percentile [1, 7]: 7.5
Serum PFAS level, 75 percentile [1, 7]: 13
Serum PFAS level, Max [1, 7]: 27
Serum PFAS level, Median [1, 7]: 10
Serum PFAS level, Min [1, 7]: 4.3
Serum PFAS level, 25 percentile [1, 8]: 8.0
Serum PFAS level, 75 percentile [1, 8]: 14
Serum PFAS level, Max [1, 8]: 27
Serum PFAS level, Median [1, 8]: 10
Serum PFAS level, Min [1, 8]: 4.4
Serum level in the first samples, median (range) [1]: 9.1 (2.9–31) ng/mL
PFAS in first serum sample, median (range) [1, 9]: 13 (5.0–31) ng/mL
PFAS in first serum sample, median (range) [1, 10]: 6.5 (2.9–11) ng/mL
Initial serum PFAS level, max ([1]; females (N=7)): 20 ng/mL
Initial serum PFAS level, median ([1]; females (N=7)): 6.7 ng/mL
Initial serum PFAS level, min ([1]; females (N=7)): 5.0 ng/mL
Relative composition of PFAS in serum, molar concentration basis [1]: 8.1%
Relative composition of PFAS in serum, weight basis [1]: 8.2%
Initial serum PFAS level, Max ([1]; males (N=19)): 31 ng/mL
Initial serum PFAS level, Min ([1]; males (N=19)): 2.9 ng/mL
Initial serum PFAS level, median ([1]; males (N=19)): 11 ng/mL
Serum concentration, molar basis [1]: 0.022
Serum concentration, weight basis [1]: 9.1
Serum level, median (range) [1]: 10 (4.1–28) ng/mL
concentration at 2016 calendar year of sampling ([2]; human, serum, read-out: PFAS serum level, median (range)): 1.5 ng/mL
Urine/serum ratio ([3]; nonpregnant women): 0.0028
Urine/serum ratio ([3]; pregnant women): 0.0011

Perfluoro-2/6-methylheptanesulfonate [2/6m-PFOS]
Serum PFAS level, 25 percentile [1, 4]: 1.4
Serum PFAS level, 75 percentile [1, 4]: 3.6
Serum PFAS level, Max [1, 4]: 7.5
Serum PFAS level, Median [1, 4]: 2.6
Serum PFAS level, Min [1, 4]: 1.0
Serum PFAS level, 25 percentile [1, 5]: 1.5
Serum PFAS level, 75 percentile [1, 5]: 2.8
Serum PFAS level, Max [1, 5]: 7.2
Serum PFAS level, Median [1, 5]: 2.2
Serum PFAS level, Min [1, 5]: 0.97
Serum PFAS level, 25 percentile [1, 6]: 1.3
Serum PFAS level, 75 percentile [1, 6]: 3.5
Serum PFAS level, Max [1, 6]: 8.1
Serum PFAS level, Median [1, 6]: 2.3
Serum PFAS level, Min [1, 6]: 0.66
Serum PFAS level, 25 percentile [1, 7]: 0.96
Serum PFAS level, 75 percentile [1, 7]: 2.9
Serum PFAS level, Max [1, 7]: 7.1
Serum PFAS level, Median [1, 7]: 1.9
Serum PFAS level, Min [1, 7]: 0.57
Serum PFAS level, 25 percentile [1, 8]: 1.2
Serum PFAS level, 75 percentile [1, 8]: 2.7
Serum PFAS level, Max [1, 8]: 7.0
Serum PFAS level, Median [1, 8]: 2.1
Serum PFAS level, Min [1, 8]: 0.83
PFAS in first serum sample, median (range) [1, 9]: 2.6 (1.0–7.5) ng/mL
PFAS in first serum sample, median (range) [1, 10]: 1.8 (0.84–3.2) ng/mL
Initial serum PFAS level, max ([1]; females (N=7)): 2.8 ng/mL
Initial serum PFAS level, median ([1]; females (N=7)): 1.4 ng/mL
Initial serum PFAS level, min ([1]; females (N=7)): 1.0 ng/mL
Initial serum PFAS level, Max ([1]; males (N=19)): 7.5 ng/mL
Initial serum PFAS level, Min ([1]; males (N=19)): 0.84 ng/mL
Initial serum PFAS level, median ([1]; males (N=19)): 2.5 ng/mL
Serum level, median (range) [1]: 2.1 (0.57–8.1) ng/mL
PFAS serum level, median (range) [2]: 0.46 ( <LOD –1.4) ng/mL

perfluoro-3/4/5-methylheptanesulfonate [3/4/5m-PFOS]
Serum PFAS level, 25 percentile [1, 4]: 2.7
Serum PFAS level, 75 percentile [1, 4]: 6.3
Serum PFAS level, Max [1, 4]: 17
Serum PFAS level, Median [1, 4]: 4.9
Serum PFAS level, Min [1, 4]: 1.7
Serum PFAS level, 25 percentile [1, 5]: 2.4
Serum PFAS level, 75 percentile [1, 5]: 4.8
Serum PFAS level, Max [1, 5]: 15
Serum PFAS level, Median [1, 5]: 4.1
Serum PFAS level, Min [1, 5]: 1.3
Serum PFAS level, 25 percentile [1, 6]: 2.5
Serum PFAS level, 75 percentile [1, 6]: 5.1
Serum PFAS level, Max [1, 6]: 16
Serum PFAS level, Median [1, 6]: 4.2
Serum PFAS level, Min [1, 6]: 1.0
Serum PFAS level, 25 percentile [1, 7]: 2.1
Serum PFAS level, 75 percentile [1, 7]: 4.9
Serum PFAS level, Max [1, 7]: 16
Serum PFAS level, Median [1, 7]: 3.6
Serum PFAS level, Min [1, 7]: 1.0
Serum PFAS level, 25 percentile [1, 8]: 2.7
Serum PFAS level, 75 percentile [1, 8]: 4.9
Serum PFAS level, Max [1, 8]: 16
Serum PFAS level, Median [1, 8]: 4.0
Serum PFAS level, Min [1, 8]: 1.0
PFAS in first serum sample, median (range) [1, 9]: 4.9 (1.7–17) ng/mL
PFAS in first serum sample, median (range) [1, 10]: 2.9 (1.2–6.7) ng/mL
Initial serum PFAS level, max ([1]; females (N=7)): 5.4 ng/mL
Initial serum PFAS level, median ([1]; females (N=7)): 2.9 ng/mL
Initial serum PFAS level, min ([1]; females (N=7)): 1.7 ng/mL
Initial serum PFAS level, Max ([1]; males (N=19)): 17 ng/mL
Initial serum PFAS level, Min ([1]; males (N=19)): 1.2 ng/mL
Initial serum PFAS level, median ([1]; males (N=19)): 4.9 ng/mL
PFAS serum level, median (range) [2]: 0.79 (0.10–2.2) ng/mL
